Laboratory results from ChEMBL document CHEMBL3045600, “Synthesis and Fungicidal Activities of Phenoxyphenyl Alkoxyiminoacetamide Derivatives” (J Pestic Sci, 1998).

Assays:
Thanatephorus cucumeris [1] = experiment: Fungicidal activity against Thanatephorus cucumeris assessed as rice sheath blight disease control at 2 ppm foliar application for 24 hr before inoculation at 26 +- 2 measured after 5 days by preventive manner; format: functional
Podosphaera fuliginea [2] = experiment: Fungicidal activity against Podosphaera fuliginea assessed as cucumber powdery mildew control under greenhouse at 125 ppm foliar application 24 hr before inoculation on upper surface of leaf at 23 +/- 2 degC by preventive manner; format: functional
Podosphaera fuliginea [3] = experiment: Fungicidal activity against Podosphaera fuliginea assessed as cucumber powdery mildew control under greenhouse at 31.3 ppm foliar application 24 hr before inoculation on upper surface of leaf at 23 +/- 2 degC by preventive manner; format: functional
Botrytis cinerea [4] = experiment: Fungicidal activity against Botryotinia fuckeliana assessed as cucumber gray mold disease control at 2 ppm foliar application 24 hr before inoculation at 22 +/- 2 degC measured after 3 days by preventive manner; format: functional
Podosphaera fuliginea [5] = experiment: Fungicidal activity against Podosphaera fuliginea assessed as cucumber powdery mildew control under greenhouse at 7.8 ppm foliar application 24 hr before inoculation on upper surface of leaf at 23 +/- 2 degC by preventive manner; format: functional
Botrytis cinerea [6] = experiment: Fungicidal activity against Botryotinia fuckeliana assessed as cucumber gray mold disease control at 31.3 ppm foliar application 24 hr before inoculation at 22 +/- 2 degC measured after 3 days by preventive manner; format: functional
[7] = tested on: Pseudoperonospora cubensis; experiment: Fungicidal activity against Pseudoperonospora cubensis assessed as cucumber downy mildew disease control at 125 ppm foliar application 24 hr before inoculation on upper surface of leaf by preventive manner; format: functional
Botrytis cinerea [8] = experiment: Fungicidal activity against Botryotinia fuckeliana assessed as cucumber gray mold disease control at 7.8 ppm foliar application 24 hr before inoculation at 22 +/- 2 degC measured after 3 days by preventive manner; format: functional
Thanatephorus cucumeris [9] = experiment: Fungicidal activity against Thanatephorus cucumeris assessed as rice sheath blight disease control at 125 ppm foliar application for 24 hr before inoculation at 26 +- 2 measured after 5 days by preventive manner; format: functional
Podosphaera fuliginea [10] = experiment: Fungicidal activity against Podosphaera fuliginea assessed as cucumber powdery mildew control under greenhouse at 2 ppm foliar application 24 hr before inoculation on upper surface of leaf at 23 +/- 2 degC by preventive manner; format: functional
[11] = tested on: Pseudoperonospora cubensis; experiment: Fungicidal activity against Pseudoperonospora cubensis assessed as cucumber downy mildew disease control at 2 ppm foliar application 24 hr before inoculation on upper surface of leaf by preventive manner; format: functional
Botrytis cinerea [12] = experiment: Fungicidal activity against Botryotinia fuckeliana assessed as cucumber gray mold disease control at 125 ppm foliar application 24 hr before inoculation at 22 +/- 2 degC measured after 3 days by preventive manner; format: functional
Thanatephorus cucumeris [13] = experiment: Fungicidal activity against Thanatephorus cucumeris assessed as rice sheath blight disease control at 31.3 ppm foliar application for 24 hr before inoculation at 26 +- 2 measured after 5 days by preventive manner; format: functional
[14] = tested on: Pseudoperonospora cubensis; experiment: Fungicidal activity against Pseudoperonospora cubensis assessed as cucumber downy mildew disease control at 7.8 ppm foliar application 24 hr before inoculation on upper surface of leaf by preventive manner; format: functional
Thanatephorus cucumeris [15] = experiment: Fungicidal activity against Thanatephorus cucumeris assessed as rice sheath blight disease control at 7.8 ppm foliar application for 24 hr before inoculation at 26 +- 2 measured after 5 days by preventive manner; format: functional
[16] = tested on: Pseudoperonospora cubensis; experiment: Fungicidal activity against Pseudoperonospora cubensis assessed as cucumber downy mildew disease control at 31.3 ppm foliar application 24 hr before inoculation on upper surface of leaf by preventive manner; format: functional
Botrytis cinerea [17] = experiment: Fungicidal activity against Botryotinia fuckeliana assessed as cucumber gray mold disease control at 2 ppm foliar application 24 hr after inoculation at 22 +/- 2 degC measured after 3 days by curative manner; format: functional
Pyricularia oryzae [18] = experiment: Fungicidal activity against Magnaporthe oryzae assessed as rice blast disease control at 10 ppm submerged application measured after 7 days; format: functional
Alternaria alternata = experiment: Fungicidal activity against Alternaria alternata apple pathotype assessed as inhibition of mycelial growth by agar dilution method; format: functional, organism-based
[19] = tested on: Pseudoperonospora cubensis; experiment: Fungicidal activity against Pseudoperonospora cubensis assessed as cucumber downy mildew disease control at 31.3 ppm foliar application 24 hr after inoculation on upper surface of leaf by curative manner; format: functional
[20] = tested on: Pseudoperonospora cubensis; experiment: Fungicidal activity against Pseudoperonospora cubensis assessed as cucumber downy mildew disease control at 2 ppm foliar application 24 hr after inoculation on upper surface of leaf by curative manner; format: functional
Fusarium oxysporum = experiment: Fungicidal activity against Fusarium oxysporum assessed as inhibition of mycelial growth by agar dilution method; format: functional, organism-based
Pyricularia oryzae [21] = experiment: Fungicidal activity against Magnaporthe oryzae assessed as rice blast disease control at 0.16 ppm submerged application measured after 7 days; format: functional
Pyricularia oryzae [22] = experiment: Fungicidal activity against Magnaporthe oryzae assessed as rice blast disease control at 0.63 ppm submerged application measured after 7 days; format: functional
[23] = tested on: Pseudoperonospora cubensis; experiment: Fungicidal activity against Pseudoperonospora cubensis assessed as cucumber downy mildew disease control at 125 ppm foliar application 24 hr after inoculation on upper surface of leaf by curative manner; format: functional
Botrytis cinerea [24] = experiment: Fungicidal activity against Botryotinia fuckeliana assessed as cucumber gray mold disease control at 31.3 ppm foliar application 24 hr after inoculation at 22 +/- 2 degC measured after 3 days by curative manner; format: functional
Botrytis cinerea [25] = experiment: Fungicidal activity against Botryotinia fuckeliana assessed as inhibition of mycelial growth by agar dilution method; format: functional, organism-based
Pythium aphanidermatum = experiment: Fungicidal activity against Pythium aphanidermatum assessed as inhibition of mycelial growth by agar dilution method; format: functional, organism-based
Pyricularia oryzae [26] = experiment: Fungicidal activity against Magnaporthe oryzae assessed as rice blast disease control at 2.5 ppm submerged application measured after 7 days; format: functional
Podosphaera fuliginea [27] = experiment: Fungicidal activity against Podosphaera fuliginea assessed as cucumber powdery mildew control under greenhouse at 2 ppm foliar application 24 hr after inoculation on upper surface of leaf at 23 +/- 2 degC by curative manner; format: functional
[28] = tested on: Colletotrichum gloeosporioides; experiment: Fungicidal activity against Glomerella cingulata assessed as inhibition of mycelial growth by agar dilution method; format: functional, organism-based
Podosphaera fuliginea [29] = experiment: Fungicidal activity against Podosphaera fuliginea assessed as cucumber powdery mildew control under greenhouse at 125 ppm foliar application 24 hr after inoculation on upper surface of leaf at 23 +/- 2 degC by curative manner; format: functional
Pyricularia oryzae [30] = experiment: Fungicidal activity against Magnaporthe oryzae assessed as inhibition of mycelial growth by agar dilution method; format: functional, organism-based
Athelia rolfsii = experiment: Fungicidal activity against Athelia rolfsii assessed as inhibition of mycelial growth by agar dilution method; format: functional, organism-based, Agroathelia rolfsii
Podosphaera fuliginea [31] = experiment: Fungicidal activity against Podosphaera fuliginea assessed as cucumber powdery mildew control under greenhouse at 31.3 ppm foliar application 24 hr after inoculation on upper surface of leaf at 23 +/- 2 degC by curative manner; format: functional
Cladosporium herbarum = experiment: Fungicidal activity against Cladosporium herbarum assessed as inhibition of mycelial growth by agar dilution method; format: functional, organism-based
[32] = tested on: Pseudoperonospora cubensis; experiment: Fungicidal activity against Pseudoperonospora cubensis assessed as cucumber downy mildew disease control at 7.8 ppm foliar application 24 hr after inoculation on upper surface of leaf by curative manner; format: functional
Botrytis cinerea [33] = experiment: Fungicidal activity against Botryotinia fuckeliana assessed as cucumber gray mold disease control at 7.8 ppm foliar application 24 hr after inoculation at 22 +/- 2 degC measured after 3 days by curative manner; format: functional
Colletotrichum lagenaria = experiment: Fungicidal activity against Colletotrichum lagenaria assessed as inhibition of mycelial growth by agar dilution method; format: functional, organism-based
Sclerotinia sclerotiorum = experiment: Fungicidal activity against Sclerotinia sclerotiorum assessed as inhibition of mycelial growth by agar dilution method; format: functional, organism-based
Podosphaera fuliginea [34] = experiment: Fungicidal activity against Podosphaera fuliginea assessed as cucumber powdery mildew control under greenhouse at 7.8 ppm foliar application 24 hr after inoculation on upper surface of leaf at 23 +/- 2 degC by curative manner; format: functional
Botrytis cinerea [35] = experiment: Fungicidal activity against Botryotinia fuckeliana assessed as cucumber gray mold disease control at 125 ppm foliar application 24 hr after inoculation at 22 +/- 2 degC measured after 3 days by curative manner; format: functional

## CNC(=O)/C(=N/OC)c1cccc([N+](=O)[O-])c1Oc1ccccc1
Thanatephorus cucumeris [1]
  Activity: <70%
Podosphaera fuliginea [2]
  Activity: <70%
Podosphaera fuliginea [3]
  Activity: <70%
Botrytis cinerea [4]
  Activity: <70%
Podosphaera fuliginea [5]
  Activity: <70%
Botrytis cinerea [6]
  Activity: <70%
[7]
  Activity: <70%
Botrytis cinerea [8]
  Activity: <70%
Thanatephorus cucumeris [9]
  Activity: <70%
Podosphaera fuliginea [10]
  Activity: <70%
[11]
  Activity: <70%
Botrytis cinerea [12]
  Activity: <70%
Thanatephorus cucumeris [13]
  Activity: <70%
[14]
  Activity: <70%
Thanatephorus cucumeris [15]
  Activity: <70%
[16]
  Activity: <70%

## CNC(=O)/C(=N/OC)c1ccccc1Oc1ccccc1 [METOMINOSTROBIN]
Podosphaera fuliginea [2]
  Activity: 100%
Botrytis cinerea [17]
  Activity: 50%
Pyricularia oryzae [18]
  Activity: 50%
Podosphaera fuliginea [3]
  Activity: 100%
Alternaria alternata
  EC50: 20.8 ppm
Podosphaera fuliginea [5]
  Activity: 70%
Botrytis cinerea [6]
  Activity: 92%
[19]
  Activity: 50%
[20]
  Activity: 50%
Fusarium oxysporum
  EC50: 6.2 ppm
Pyricularia oryzae [21]
  Activity: 50%
Pyricularia oryzae [22]
  Activity: 50%
[23]
  Activity: 50%
[7]
  Activity: 100%
Botrytis cinerea [8]
  Activity: 73%
Thanatephorus cucumeris [9]
  Activity: 70%
Botrytis cinerea [24]
  Activity: 50%
Botrytis cinerea [25]
  EC50: 1.1 ppm
Pythium aphanidermatum
  EC50: 2.8 ppm
Pyricularia oryzae [26]
  Activity: 50%
Podosphaera fuliginea [27]
  Activity: 50%
[28]
  EC50: 7.2 ppm
Podosphaera fuliginea [29]
  Activity: 50%
Pyricularia oryzae [30]
  EC50: 5.6 ppm
Athelia rolfsii
  EC50: 2.5 ppm
Podosphaera fuliginea [31]
  Activity: 50%
Cladosporium herbarum
  EC50: 4.5 ppm
[32]
  Activity: 50%
Botrytis cinerea [33]
  Activity: 50%
Colletotrichum lagenaria
  EC50: 4.7 ppm
Botrytis cinerea [12]
  Activity: 95%
Thanatephorus cucumeris [13]
  Activity: 70%
[14]
  Activity: 30%
Thanatephorus cucumeris [15]
  Activity: 50%
[16]
  Activity: 100%
Sclerotinia sclerotiorum
  EC50: 2 ppm
Podosphaera fuliginea [34]
  Activity: 50%
Botrytis cinerea [35]
  Activity: 50%

## CNC(=O)/C(=N/OC)c1ccccc1Oc1ccc(OCc2ccccc2)cc1
Thanatephorus cucumeris [1]
  Activity: <70%
Podosphaera fuliginea [2]
  Activity: <70%
Pyricularia oryzae [18]
  Activity: 50%
Podosphaera fuliginea [3]
  Activity: <70%
Botrytis cinerea [4]
  Activity: <70%
Podosphaera fuliginea [5]
  Activity: <70%
Botrytis cinerea [6]
  Activity: <70%
Pyricularia oryzae [21]
  Activity: 50%
Pyricularia oryzae [22]
  Activity: 50%
[7]
  Activity: <70%
Botrytis cinerea [8]
  Activity: <70%
Thanatephorus cucumeris [9]
  Activity: <70%
Pyricularia oryzae [26]
  Activity: 50%
Podosphaera fuliginea [27]
  Activity: <50%
Podosphaera fuliginea [29]
  Activity: <50%
Podosphaera fuliginea [10]
  Activity: <70%
Podosphaera fuliginea [31]
  Activity: <50%
[11]
  Activity: <70%
Botrytis cinerea [12]
  Activity: <70%
Thanatephorus cucumeris [13]
  Activity: <70%
[14]
  Activity: <70%
Thanatephorus cucumeris [15]
  Activity: <70%
[16]
  Activity: <70%
Podosphaera fuliginea [34]
  Activity: <50%

## CNC(=O)/C(=N/OC)c1ccccc1Oc1ccccc1[N+](=O)[O-]
Thanatephorus cucumeris [1]
  Activity: <70%
Podosphaera fuliginea [2]
  Activity: <70%
Botrytis cinerea [17]
  Activity: <50%
Podosphaera fuliginea [3]
  Activity: <70%
Botrytis cinerea [4]
  Activity: <70%
Podosphaera fuliginea [5]
  Activity: <70%
Botrytis cinerea [6]
  Activity: <70%
[19]
  Activity: <50%
[20]
  Activity: <50%
[23]
  Activity: <50%
[7]
  Activity: <70%
Botrytis cinerea [8]
  Activity: <70%
Thanatephorus cucumeris [9]
  Activity: <70%
Botrytis cinerea [24]
  Activity: <50%
Podosphaera fuliginea [27]
  Activity: <50%
Podosphaera fuliginea [29]
  Activity: <50%
Podosphaera fuliginea [10]
  Activity: <70%
Podosphaera fuliginea [31]
  Activity: <50%
[11]
  Activity: <70%
[32]
  Activity: <50%
Botrytis cinerea [33]
  Activity: <50%
Botrytis cinerea [12]
  Activity: <70%
Thanatephorus cucumeris [13]
  Activity: <70%
[14]
  Activity: <70%
Thanatephorus cucumeris [15]
  Activity: <70%
[16]
  Activity: <70%
Podosphaera fuliginea [34]
  Activity: <50%
Botrytis cinerea [35]
  Activity: <50%

## CNC(=O)/C(=N/OC)c1cc(C(F)(F)F)ccc1Oc1ccccc1
Thanatephorus cucumeris [1]
  Activity: <70%
Podosphaera fuliginea [2]
  Activity: <70%
Podosphaera fuliginea [3]
  Activity: <70%
Botrytis cinerea [4]
  Activity: <70%
Podosphaera fuliginea [5]
  Activity: <70%
Botrytis cinerea [6]
  Activity: <70%
[7]
  Activity: <70%
Botrytis cinerea [8]
  Activity: <70%
Thanatephorus cucumeris [9]
  Activity: <70%
Podosphaera fuliginea [10]
  Activity: <70%
[11]
  Activity: <70%
Botrytis cinerea [12]
  Activity: <70%
Thanatephorus cucumeris [13]
  Activity: <70%
[14]
  Activity: <70%
Thanatephorus cucumeris [15]
  Activity: <70%
[16]
  Activity: <70%

## CNC(=O)/C(=N\OC)c1ccccc1Oc1ccccc1
Podosphaera fuliginea [2]
  Activity: 100%
Podosphaera fuliginea [3]
  Activity: 100%
Alternaria alternata
  EC50: > 64 ppm
Podosphaera fuliginea [5]
  Activity: 40%
Botrytis cinerea [6]
  Activity: 36%
Fusarium oxysporum
  EC50: 58.1 ppm
[7]
  Activity: 70%
Botrytis cinerea [8]
  Activity: 18%
Thanatephorus cucumeris [9]
  Activity: 50%
Botrytis cinerea [25]
  EC50: 1.7 ppm
Pythium aphanidermatum
  EC50: 28.1 ppm
[28]
  EC50: 16.2 ppm
Pyricularia oryzae [30]
  EC50: 49.1 ppm
Athelia rolfsii
  EC50: 41.1 ppm
Cladosporium herbarum
  EC50: 41.8 ppm
Colletotrichum lagenaria
  EC50: 61.8 ppm
Botrytis cinerea [12]
  Activity: 44%
Thanatephorus cucumeris [13]
  Activity: 0%
[14]
  Activity: 0%
Thanatephorus cucumeris [15]
  Activity: 0%
[16]
  Activity: 0%
Sclerotinia sclerotiorum
  EC50: 11.9 ppm
